From patent publication US20250305953A1, “LIGHT-EMITTING RADICAL CATION PROBE IN SITU GENERATED BY ACID INDUCTION, AND PREPARATION THEREFOR AND APPLICATION THEREOF” (SOUTH CHINA UNIVERSITY OF TECHNOLOGY, priority 2022, published 2025)

Key:
[1] = compared with P3^⋅+
Protocol: Animal experiments: male eight-week-old Balb/c nude mice were purchased from Guangzhou Yancheng Biotechnology Co. Ltd. The mice were adaptively housed for one week and fasted for 24 hours before gavage.
Subsequently, the in vivo fluorescence imaging was performed at room temperature by using the small animal imaging instrument Bruker MI SE 721. The imaging was performed every 10 min until 60 min, every 30 min until 120 min, and then every 60 min until 180 min. Two imaging steps were performed sequentially: 590 nm/700 nm, with exposure time being 60 s, and white light exposure time being 0.175 s. […] In the same conditions, quantitative analysis of fluorescence imaging was performed by using the instrument Bruker MI SE 721. The quantitative analysis of fluorescence was performed on the gastric signals in the mice at all the time points above. The mean value of fluorescence at three sites in the gastric region at 0 min was taken as I0, and the mean value of fluorescence at three sites in the gastric region at other time points was taken as I. A semi-quantitative analysis of the change of the gastric signals in the mice was performed by means of the fluorescence ratio (I/I0). In addition, the mice were euthanized at different time points, and the gastrointestinal tracts of the mice were dissected out for white light photography.

[2] = Protocol: 30 μL of DMSO stock solution (200 mM) of the compound P6 (4-(piperidine-1-methylene)-2,5-dimethyl-3-hydroxymethylene-^1H-pyrrole) was added to 2970 μL of the acidic buffer solution (pH=2.0-3.0).
After being mixed well, tests of the time-dependent ultraviolet-visible absorption spectrum and fluorescence spectrum were performed (2 h).

[3] = In vivo imaging with laparotomy; set-up: species or system Balb/c nude mice; conditions: dissected after imaging
From the text: The mice were anesthetized beforehand, and the gastrointestinal tract was then exposed by a single incision in the abdomen of the mice.

[4] = H&E staining and hepatorenal index analysis; format: in vivo, Balb/c nude mice
Protocol: 2 hours after gavage, blood (approximately 500 μL) was collected through the ocular fundus venous plexus and stored in an icebox 20 minutes before centrifugation at 3,500 r.p.m. to prevent clotting. Roche Cobas E602 electrochemical light-emitting immunoassay analyzer was used to test and analyze total protein (TP), albumin (ALB), alanine aminotransferase (ALT), aspartate aminotransferase (AST), creatinine (CREA), carbon dioxide (CO2), uric acid (UA), urea (UREA) in serum samples (200 μL).
All tissues were fixed with 4% PFA, dehydrated with an ethanol solution, embedded with paraffin, and cut into […] coronal and low-temperature sections for hematoxylin and eosin (H&E) staining. Paraffin was removed by xylene washing. Then, the sections were incubated with hematoxylin and eosin for 4 min and washed with distilled water. Stained sections were examined by using the Nikon ECLIPSE 80i microscope.

fluorescence of visceral organs other than the gastrointestinal tract [3]	biocompatibility ([4]; generated in situ in the stomach, conclusion)	Structure (SMILES)	gastrointestinal imaging effect [1]	time for conversion into the radical cation ([2]; acidic buffer solution pH=2.0-3.0, atmosphere of air) [min]	conversion efficiency ([2]; compared with P3)	light emission ([2]; compared with P3)	H&E histology of major visceral organs (stomach, liver, spleen, kidney, lung, heart) ([4]; 2 hours after gavage of 1.5 mg in 70 μL water, compared with control group)
		Cc1[nH]c(C)c(CN2CCCCC2)c1CO [P6, 4-(piperidine-1-methylene)-2,5-dimethyl-3-hydroxymethylene-^1H-pyrrole]	not as good as that of P3^⋅+	≤ 30	lower conversion efficiency	weaker light emission	
without any fluorescence signal	good biocompatibility	Cc1cc(CO)c(C)n1-c1ccccc1 [P3, 2,5-dimethyl-3-hydroxymethylene-1-phenyl-^1H-pyrrole]					no obvious injury or inflammatory lesion
